Laboratory results reported in patent US8299083B2, “PDE5 inhibitor compositions and methods for treating cardiac indications” (The Johns Hopkins University, priority 2004, dated 2012).

How the values were obtained:
AktTG and NTG mice = assay: Transgenic mice with cardiac-targeted Akt overexpression (AktTG) and NTG controls: pressure-volume analysis, echo, heart weight; type: in vivo, mouse; details: for EDP / EDV / EF / ESP / ESV / Eesn / HR / PMXI / Tau / dP/dtmax/IP / dPdtmax / dPdtmin: sildenafil 100 mg/kg/day
Experimental: In vehicle-treated animals (age 4-5 months), AktTG hearts were larger and had reduced heart function (FIG. 10E and Table 3). […]
(§1) Transthoracic two-dimensional guided M-mode echocardiography was performed in non-anesthetized mice. Measurements were done using an echocardiography system, the SEQUOIA C256 (Siemens, Munich, Del.) with the 15 MHz linear-array transducer. Intact heart hemodynamic analysis was performed as described^90. These studies employed a four-electrode pressure-volume catheter (model SPR-839, Millar Instruments) placed through the left ventricular apex in the open chest anesthetized animal and positioned along the longitudinal axis to record chamber volume by impedance and pressure by micromanometry.
(§2) All hemodynamic data were recorded using custom developed software, digitizing signals at 2 KHz. End-diastolic and end-systolic volumes were the average of volumes measured during isovolumic contraction and relaxation, respectively. ESP was the pressure at maximal chamber elastance (P/V ratio)^1. EDP was the diastolic pressure at the lower right hand corner of the pressure-volume loop. Cardiac output was determined from a perivascular flow probe (Transonics, Ithica, N.Y.) placed around the thoracic aorta. Ea was equal to the ratio of end-systolic pressure divided by stroke volume. The volume catheter signal was calibrated for both gain and offset. Gain was determined by setting the catheter-derived cardiac output (equal to pressure-volume loop width times heart rate) to that obtained from the calibrated flow probe value. Offset was determined using the hypertonic saline method Ventricular power was equal to the instantaneous product of pressure times flow, and the peak power was divided by EDV to obtain the power index PMXI^79. […] The slope of this relation Ees was normalized by heart mass and expressed per gm heart mass. Msw was derived from the linear relation between stroke work and EDV from the same set of variably loaded cardiac cycles used to derive Eesn, and is another load-independent assessment of systolic contractile function^4. Tau was obtained from the model: P=Po+ae^−t/□ . . . fitting data during isovolumic relaxation. dP/dt was derived from a digital filter (5-point weighted slope). PFR/EDV was derived from the maximal first derivative of the volume signal during early diastole, divided by EDV.

[1] = tested on: C57BL/6 mice, pressure overload by transverse aortic constriction; assay: In vivo cardiac hemodynamics by pressure-volume analysis, TAC mice; design: species or system mouse
Experimental: Pressure overload was produced by transverse aortic constriction.
as §1, §2

CCCc1nn(C)c2c(=O)[nH]c(-c3cc(S(=O)(=O)N4CCN(C)CC4)ccc3OCC)nc12 [sildenafil]
progressive hypertrophy in AktTG mice (serial echo, heart weight/tibia length) (AktTG and NTG mice; AktTG, 6-week period): did not blunt progressive hypertrophy
EDP (AktTG and NTG mice; AktTG): 8.9 ± 1.1
EDV (AktTG and NTG mice; AktTG): 57.6 ± 5.4
EF (AktTG and NTG mice; AktTG): 31.8 ± 2.1
ESP (AktTG and NTG mice; AktTG): 90.1 ± 0.9
ESV (AktTG and NTG mice; AktTG): 39.6 ± 4.5
Eesn (AktTG and NTG mice; AktTG): 21.5 ± 2.9
HR (AktTG and NTG mice; AktTG): 569.5 ± 47.4
PMXI (AktTG and NTG mice; AktTG): 17.8 ± 1.9
Tau (AktTG and NTG mice; AktTG): 10.0 ± 0.6
dP/dtmax/IP (AktTG and NTG mice; AktTG): 128.5 ± 2.9
dPdtmax (AktTG and NTG mice; AktTG): 6993 ± 156
dPdtmin (AktTG and NTG mice; AktTG): −6241 ± 289
EDP (AktTG and NTG mice; NTG): 4.9 ± 1.2
EDV (AktTG and NTG mice; NTG): 44.5 ± 4.9
EF (AktTG and NTG mice; NTG): 56.7 ± 3.5
ESP (AktTG and NTG mice; NTG): 96.7 ± 4.7
ESV (AktTG and NTG mice; NTG): 19.4 ± 3.0
Eesn (AktTG and NTG mice; NTG): 39.9 ± 1.5
HR (AktTG and NTG mice; NTG): 511.6 ± 31.4
PMXI (AktTG and NTG mice; NTG): 25.9 ± 2.2
Tau (AktTG and NTG mice; NTG): 7.4 ± 0.6
dP/dtmax/IP (AktTG and NTG mice; NTG): 176.4 ± 14.8
dPdtmax (AktTG and NTG mice; NTG): 10133 ± 791
dPdtmin (AktTG and NTG mice; NTG): −9267 ± 417
CO (cardiac output) ([1]; 3 wk TAC + Delay (2 wk) Sil): 10.7 ± 0.5 mL/min
EDP (LV end-diastolic pressure) ([1]; 3 wk TAC + Delay (2 wk) Sil): 7.5 ± 0.6 mmHg
EDV (LV end-diastolic volume) ([1]; 3 wk TAC + Delay (2 wk) Sil): 29.4 ± 2.0 µL
EF (ejection fraction) ([1]; 3 wk TAC + Delay (2 wk) Sil): 64.0 ± 4.7%
ESP (LV end-systolic pressure) ([1]; 3 wk TAC + Delay (2 wk) Sil): 184.0 ± 9.1 (b) mmHg
ESV (LV end-systolic volume) ([1]; 3 wk TAC + Delay (2 wk) Sil): 10.9 ± 2.1 µL
Ea (effective arterial elastance) ([1]; 3 wk TAC + Delay (2 wk) Sil): 9.9 ± 0.6 (b) mmHg/μL
Eesn (end-systolic elastance normalized to heart mass) ([1]; 3 wk TAC + Delay (2 wk) Sil): 111.0 ± 31.4 mmHg/μL/g
HR (heart rate) ([1]; 3 wk TAC + Delay (2 wk) Sil): 574.6 ± 21.7 MIN^−
Msw (preload recruitable stroke work) ([1]; 3 wk TAC + Delay (2 wk) Sil): 171.3 ± 27.6 (i) mmHg
PFR/EDV (peak diastolic filling rate normalized to EDV) ([1]; 3 wk TAC + Delay (2 wk) Sil): 30.6 ± 3.6 s⁻¹
Tau (time constant of pressure relaxation) ([1]; 3 wk TAC + Delay (2 wk) Sil): 7.5 ± 0.3 M·s
dP/dtmax (maximal rate of pressure rise) ([1]; 3 wk TAC + Delay (2 wk) Sil): 14879 ± 898 mmHg/s
dP/dtmin (peak rate of LV pressure decline) ([1]; 3 wk TAC + Delay (2 wk) Sil): −14325 ± 445 (j) mmHg/s
dP/dtmx/IP (dP/dtmax normalized to instantaneous developed pressure) ([1]; 3 wk TAC + Delay (2 wk) Sil): 209.4 ± 11.1 s⁻¹
CO (cardiac output) ([1]; 3 wk TAC + Sil): 9.4 ± 0.5 mL/min
EDP (LV end-diastolic pressure) ([1]; 3 wk TAC + Sil): 7.6 ± 1.4 mmHg
EDV (LV end-diastolic volume) ([1]; 3 wk TAC + Sil): 22.2 ± 1.5 µL
EF (ejection fraction) ([1]; 3 wk TAC + Sil): 72.6 ± 5.7%
ESP (LV end-systolic pressure) ([1]; 3 wk TAC + Sil): 163.6 ± 5.6 (b) mmHg
ESV (LV end-systolic volume) ([1]; 3 wk TAC + Sil): 6.4 ± 1.7 µL
Ea (effective arterial elastance) ([1]; 3 wk TAC + Sil): 10.5 ± 0.8 (b) mmHg/μL
Eesn (end-systolic elastance normalized to heart mass) ([1]; 3 wk TAC + Sil): 133.0 ± 25.1 (i) mmHg/μL/g
HR (heart rate) ([1]; 3 wk TAC + Sil): 598.8 ± 23.8 MIN^−
Msw (preload recruitable stroke work) ([1]; 3 wk TAC + Sil): 162.5 ± 10.5 (i) mmHg
PFR/EDV (peak diastolic filling rate normalized to EDV) ([1]; 3 wk TAC + Sil): 43.1 ± 4.9 (k) sec^−1
Tau (time constant of pressure relaxation) ([1]; 3 wk TAC + Sil): 6.3 ± 0.4 M·s
dP/dtmax (maximal rate of pressure rise) ([1]; 3 wk TAC + Sil): 18638 ± 1379 (f) mmHg/s
dP/dtmin (peak rate of LV pressure decline) ([1]; 3 wk TAC + Sil): −16758 ± 917 (f) mmHg/s
dP/dtmx/IP (dP/dtmax normalized to instantaneous developed pressure) ([1]; 3 wk TAC + Sil): 256.5 ± 8.4 g/s
CO (cardiac output) ([1]; Sildenafil 3 wk, no TAC): 11.1 ± 1.1 mL/min
EDP (LV end-diastolic pressure) ([1]; Sildenafil 3 wk, no TAC): 6.5 ± 1.0 mmHg
EDV (LV end-diastolic volume) ([1]; Sildenafil 3 wk, no TAC): 32.8 ± 2.3 µL
EF (ejection fraction) ([1]; Sildenafil 3 wk, no TAC): 61.4 ± 6.1%
ESP (LV end-systolic pressure) ([1]; Sildenafil 3 wk, no TAC): 101.5 ± 2.6 mmHg
ESV (LV end-systolic volume) ([1]; Sildenafil 3 wk, no TAC): 13.0 ± 2.7 µL
Ea (effective arterial elastance) ([1]; Sildenafil 3 wk, no TAC): 5.3 ± 0.5 mmHg/μL
Eesn (end-systolic elastance normalized to heart mass) ([1]; Sildenafil 3 wk, no TAC): 47.6 ± 5.8 mmHg/μL/g
HR (heart rate) ([1]; Sildenafil 3 wk, no TAC): 558.5 ± 22.9 MIN^−
Msw (preload recruitable stroke work) ([1]; Sildenafil 3 wk, no TAC): 84.0 ± 5.7 mmHg
PFR/EDV (peak diastolic filling rate normalized to EDV) ([1]; Sildenafil 3 wk, no TAC): 34.1 ± 1.9 s⁻¹
Tau (time constant of pressure relaxation) ([1]; Sildenafil 3 wk, no TAC): 7.6 ± 0.4 M·s
dP/dtmax (maximal rate of pressure rise) ([1]; Sildenafil 3 wk, no TAC): 11843 ± 681 mmHg/s
dP/dtmin (peak rate of LV pressure decline) ([1]; Sildenafil 3 wk, no TAC): −10689 ± 399 mmHg/s
dP/dtmx/IP (dP/dtmax normalized to instantaneous developed pressure) ([1]; Sildenafil 3 wk, no TAC): 183.7 ± 6.9 s⁻¹
